Assay [1] is described as follows: Rat hemorrhagic shock, hypertonic saline resuscitation: cardiovascular response (MAP, HR, CO, SVR). The note with it: for heart rate (HR): 60 minutes after resuscitation. The format is in vivo. As to the method: Animals. Male Sprague-Dawley rats (340 to 380 g) (Envigo, Indianapolis, IN) were housed for at least 4 days in a room with controlled temperature (23±1° C.), humidity (50±10%) and light (6:00 A.M. to 6:00 P.M.) before being used. Food and water were made available continuously. Animal care and use for experimental procedures were approved by the Institutional Animal Care and Use Committee of the Midwestern University. All anesthetic and surgical procedures were in compliance with the guidelines established by the Animal Care Committee.
Determination of cardiovascular response. The animals were anesthetized with urethane dissolved in isotonic saline. Urethane was administered in a dose of 1.5 g per kg body weight via intraperitoneal injection. Urethane was selected as an anesthetic agent, because it produces long lasting (8-10 hours) anesthesia with minimal cardiovascular and respiratory system depression. It produces a level of surgical anesthesia characterized by preservation of cardiovascular reflexes (Maggi and Meli 1986). Briefly, anaesthetized rats were immobilized on a surgical board equipped with controlled heating pad. Blood PO2, Pco2 and pH, were maintained using a tracheotomy cannula connected to a rodent ventilator (Model 683, Harvard Apparatus Inc., Holliston, MA). The right carotid artery was exposed to measure the left ventricular performance. Surgical suture (Deknatel, Research Triangle Park, NC) was secured around the proximal end of the carotid artery and an ultra-miniature pressure-volume (P-V) catheter SPR-869 (Millar Instruments, Houston, TX) was inserted through a tiny incision made near the proximal end of the artery. The P-V terminal of the catheter was connected to MPVS-300 P-V unit through PEC-4D and CEC-4B cables and advanced into the left ventricle to obtain the P-V signals. The signals were continuously aquired (1000 S^−1) using the MPVS-300 P-V unit (AD Instruments, Mountain View, CA, USA) and PowerLab 16/30 data acquisition system (AD Instruments). MAP and HR were measured by cannulating the left femoral artery with pressure catheter SPR-320 (Millar Instruments), connected to the ML221 bridge amplifier (AD Instruments) through AEC-10C connector and the signals were acquired (1000 S^−1) using PowerLab 16/30 data acquisition system (Gulati et al. 2012; Pacher et al. 2008). The left femoral vein was cannulated using PE 50 tubing (Clay Adams, Parsipanny, NJ) and secured for resuscitation.
(§1) Induction of Hemorrhagic Shock. Hemorrhage was induced by withdrawing blood from the femoral artery at a rate of approximately 0.5 to 1 mL/min until a MAP of 35 mmHg was reached. This MAP was maintained for 30 min by further withdrawal of blood, if necessary. The hemorrhagic shock model used in the present study is a well-established rodent model of manageable pressure hemorrhage (Buehler et al. 2000; Gulati et al. 1997a; Gulati and Sen 1998). The volume of blood loss was about approximately 8.0 ml in each rat and was similar in various groups, amounting to approximately 40% of the total blood. Measured hematocrit levels were similar in various groups. The duration of blood withdrawal was approximately 15 minutes.
Experimental design. To determine the resuscitative effect of centhaquin on cardiovascular system and plasma cytokines in hemorrhagic shock, rats were randomly divided into five groups, Group 1: Sham control (Non-hemorrhaged) (n=5), Group 2: Hemorrhage with no resuscitation (n=5); Group 3: Hemorrhage followed by resuscitation with 3% hypertonic saline (vehicle) (n=5); Group 4: Hemorrhage followed by resuscitation with vehicle plus centhaquin (0.017 mg/kg) (n=5); and Group 5: Hemorrhage followed by resuscitation with vehicle plus centhaquin (0.05 mg/kg) (n=5). Resuscitation was started 30 min after induction of hemorrhagic shock as an intravenous infusion (1 mL/min) through femoral vein using an infusion pump (Harvard Apparatus Infusion/Withdrawal Pump, Millis, MA). […]

The subject of another assay is ETB receptors. In words: ETB receptor expression in tissues of hemorrhaged rats (western blot). The format is in vivo, rat. The note with it: for change in ETB receptor expression, abdominal aorta / change in ETB receptor expression, kidney medulla: compared to untreated hemorrhaged rats. As for the experimental part: as §1
Experimental design. To determine the resuscitative effect of centhaquin on cardiovascular system and plasma cytokines in hemorrhagic shock, rats were randomly divided into five groups, Group 1: Sham control (Non-hemorrhaged) (n=5), Group 2: Hemorrhage with no resuscitation (n=5); Group 3: Hemorrhage followed by resuscitation with 3% hypertonic saline (vehicle) (n=5); Group 4: Hemorrhage followed by resuscitation with vehicle plus centhaquin (0.017 mg/kg) (n=5); and Group 5: Hemorrhage followed by resuscitation with vehicle plus centhaquin (0.05 mg/kg) (n=5). Resuscitation was started 30 min after induction of hemorrhagic shock as an intravenous infusion (1 mL/min) through femoral vein using an infusion pump (Harvard Apparatus Infusion/Withdrawal Pump, Millis, MA). The blood samples, for biochemical estimations, were collected at 30 minutes of resuscitation and cardiovascular parameters were monitored till 60 minutes after which the animal was sacrificed. The volume of resuscitative solution was kept equal to the volume of blood loss.
Estimation of ETA and ETB receptor expression. Expression of ETA and ETB receptors was determined using the western blotting technique (Briyal et al. 2015; Leonard and Gulati 2013) with some modifications. After completion of cardiovascular experiments animals were sacrificed and the organs (brain, heart, liver, lung, kidney and abdominal aorta) were immediately dissected out, flash frozen on dry ice, and stored at −80° C. for further analysis. The tissue was homogenized with 10×(w/v) RIPA lysis buffer (20 mM Tris-HCl pH 7.5, 120 mM NaCl, 1.0% TritonX-100, 1.0% sodium deoxycholate, 0.1% sodium dodecyl sulfate (SDS), 10% glycerol, 1 mM disodium ethylene diamine tetraacetic acid (EDTA), 1 mM ethylene glycol-bis(β-aminoethyl ether)-N,N,N′,N′-tetraacetic acid tetrasodium salt (EGTA), phosphatase inhibitors and Complete Mini Protease inhibitor cocktail tablet (Roche Diagnostics, Indianapolis, IN). Proteins were isolated in solubilized form and concentrations were measured by Folin-Ciocalteu's phenol reagent (Lowry et al. 1951). Solubilized protein (60 μg) was denatured in Laemmli sample buffer (Bio-Rad Laboratories, Hercules, CA), resolved on 10% sodium dodecyl sulfate-polyacrylamide gel electrophoresis (SDS-PAGE) and then transferred onto the nitrocellulose membrane followed by blocking the membrane with SuperBlock® Blocking Buffer in tris-buffered saline (TBS) (ThermoFisher Scientific, Hanover Park, IL). The membranes were washed three times with 1×TBS-Tween (TBST) and incubated with rabbit polyclonal anti-ETA receptor (ab85163, Abcam, Cambridge, MA, 1:1000) or anti-ETB receptor (ab117529, Abcam, Cambridge, MA, 1:1000) or mouse monoclonal anti-β-actin (a1978, Sigma-Aldrich, St. Louis, MO) antibodies, followed by horseradish peroxidase (HRP)-conjugated secondary antibodies goat anti-rabbit (sc2004, Santa Cruz Biotechnology, Dallas, TX, 1:2000) or goat anti-mouse (ab98693, Abcam, Cambridge, MA, 1:10,000) and visualized by SuperSignal® West Pico Chemiluminescent Substrate (ThermoFisher Scientific, Hanover Park, IL) using the ChemiDoc™ MP Imaging System (Bio-Rad Laboratories, Hercules, CA) and then analyzed using ImageJ (NIH) software.
(A western blot detects proteins with antibodies after separation by electrophoresis.)

These results are taken from patent US12629406B2, “Alterations in endothelin receptors following hemorrhage and resuscitation by centhaquin” (MIDWESTERN UNIVERSITY, priority 2018, dated 2026).

With `Cc1cccc(N2CCN(CCc3ccc4ccccc4n3)CC2)c1` [centhaquin, 2-[2-(4-(3-methyphenyl)-1-piperazinyl)]ethyl-quinoline], the “cardiac output (CO) compared to hypertonic saline alone” value in assay [1] (30 and 60 min post resuscitation) was “significantly increased”. The “systemic vascular resistance (SVR)” value in assay [1] (30 and 60 minutes of resuscitation, versus post-hemorrhage) is reported as “further decreased”. Further, the “heart rate (HR)” value in assay [1] (centhaquin 0.017 mg/kg) is on record as 361±10 beats/min; in assay [1] (centhaquin 0.05 mg/kg), 363±10 beats/min. Besides, the “mean arterial pressure (MAP) post resuscitation” value in assay [1] (centhaquin 0.017 and 0.05 mg/kg, for at least 60 min, p<0.01) was “significant increase”. Further, the “difference in HR following resuscitation” value in assay [1] (hypertonic saline or centhaquin) was “No significant difference”. Moreover, the results for the “change in ETB receptor expression, abdominal aorta” value in the assay on ETB receptors (centhaquin 0.017 mg/kg) and in the assay on ETB receptors (centhaquin 0.05 mg/kg) were 79.7% and 57.4%, respectively. Besides, the entries for the “change in ETB receptor expression, kidney medulla” value in the assay on ETB receptors (centhaquin 0.017 mg/kg) and in the assay on ETB receptors (centhaquin 0.05 mg/kg) were 76.6% and 69.4%, respectively. Besides, in the assay on ETB receptors (dose not given), the “change in ETB expression, abdominal aorta (summary)” value is 79%. For the same compound, the “ETB receptor expression in brain, heart, liver, lungs and kidney cortex” value with ETB receptors (hemorrhage and resuscitation) was “no change”. For the same compound, the “shock-induced decrease (−34%) in ETB expression, renal medulla” value in the assay on ETB receptors (summary, not attenuated by saline) is “completely attenuated”.
